Results published in patent US9539256B2 (THE BOARD OF REGENTS OF THE UNIVERSITY OF TEXAS SYSTEM, priority 2012, dated 2017).
“Also recorded” adds a separate entry of the source.

Experiments:
EPAC1 = molecular target: T1, EPAC1 (Homo sapiens, UniProt O95398); test: Rap1-GDP exchange (GEF) activity assay, EPAC1
T1 sequence (O95398 1-923): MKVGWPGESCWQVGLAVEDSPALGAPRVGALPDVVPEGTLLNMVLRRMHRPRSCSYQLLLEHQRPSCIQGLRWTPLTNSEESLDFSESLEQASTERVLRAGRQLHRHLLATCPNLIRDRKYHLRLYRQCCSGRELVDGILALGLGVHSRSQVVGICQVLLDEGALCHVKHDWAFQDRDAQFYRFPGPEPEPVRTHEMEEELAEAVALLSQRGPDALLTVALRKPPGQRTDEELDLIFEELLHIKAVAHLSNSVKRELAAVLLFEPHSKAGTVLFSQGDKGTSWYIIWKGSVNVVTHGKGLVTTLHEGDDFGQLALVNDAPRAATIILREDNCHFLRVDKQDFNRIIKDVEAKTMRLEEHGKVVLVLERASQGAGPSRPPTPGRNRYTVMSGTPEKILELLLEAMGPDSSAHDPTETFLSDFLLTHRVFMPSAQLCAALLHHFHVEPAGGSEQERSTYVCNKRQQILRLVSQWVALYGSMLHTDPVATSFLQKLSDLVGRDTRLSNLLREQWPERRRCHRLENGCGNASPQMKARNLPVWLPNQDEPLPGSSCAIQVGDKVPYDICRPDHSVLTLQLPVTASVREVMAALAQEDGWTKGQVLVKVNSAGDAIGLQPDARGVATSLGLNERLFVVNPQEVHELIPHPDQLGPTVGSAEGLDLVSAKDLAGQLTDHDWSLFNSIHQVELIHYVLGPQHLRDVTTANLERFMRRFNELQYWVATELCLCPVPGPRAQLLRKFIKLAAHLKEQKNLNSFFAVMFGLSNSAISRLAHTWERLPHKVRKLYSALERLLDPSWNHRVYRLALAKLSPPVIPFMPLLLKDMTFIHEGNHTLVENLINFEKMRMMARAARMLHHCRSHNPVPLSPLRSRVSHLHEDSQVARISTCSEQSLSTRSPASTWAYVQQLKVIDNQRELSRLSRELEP

EPAC2 = molecular target: T2, EPAC2 (Mus musculus, UniProt Q9EQZ6); test: 8-NBD-cAMP competition binding to EPAC2
T2 sequence (Q9EQZ6 1-1011): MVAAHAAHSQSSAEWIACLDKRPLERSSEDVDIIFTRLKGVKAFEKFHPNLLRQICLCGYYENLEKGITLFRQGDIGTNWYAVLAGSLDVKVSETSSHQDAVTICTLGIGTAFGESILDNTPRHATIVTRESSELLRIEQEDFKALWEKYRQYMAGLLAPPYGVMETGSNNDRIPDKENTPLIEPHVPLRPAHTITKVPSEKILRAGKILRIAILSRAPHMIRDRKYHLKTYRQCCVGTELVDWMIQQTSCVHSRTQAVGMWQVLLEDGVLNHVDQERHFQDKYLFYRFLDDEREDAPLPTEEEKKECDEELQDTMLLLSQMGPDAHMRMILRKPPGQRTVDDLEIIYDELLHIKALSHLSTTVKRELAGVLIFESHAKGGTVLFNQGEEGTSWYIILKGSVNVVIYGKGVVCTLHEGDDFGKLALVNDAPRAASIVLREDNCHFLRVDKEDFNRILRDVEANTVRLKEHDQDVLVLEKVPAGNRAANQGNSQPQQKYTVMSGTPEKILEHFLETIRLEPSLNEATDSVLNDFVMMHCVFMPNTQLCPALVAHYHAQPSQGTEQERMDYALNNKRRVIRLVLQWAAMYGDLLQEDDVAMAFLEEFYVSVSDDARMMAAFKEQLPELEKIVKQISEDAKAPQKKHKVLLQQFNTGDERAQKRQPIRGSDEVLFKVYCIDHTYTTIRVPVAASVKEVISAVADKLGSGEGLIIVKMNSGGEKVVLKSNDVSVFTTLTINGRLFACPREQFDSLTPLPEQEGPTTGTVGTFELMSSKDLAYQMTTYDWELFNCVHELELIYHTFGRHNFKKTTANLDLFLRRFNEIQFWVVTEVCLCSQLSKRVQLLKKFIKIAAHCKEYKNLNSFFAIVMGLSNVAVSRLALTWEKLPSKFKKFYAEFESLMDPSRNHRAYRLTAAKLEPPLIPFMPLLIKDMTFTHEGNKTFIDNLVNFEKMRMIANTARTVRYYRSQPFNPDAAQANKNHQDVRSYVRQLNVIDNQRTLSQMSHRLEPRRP
Description: Primary screen is performed in black 96-well or 384-well microplates. As an example, 50 nM EPAC2 solution is prepared in 20 mM Tris buffer, pH 7.5, containing 150 mM NaCl, 1 mM EDTA, and 1 mM […]. […] Sample is dispensed into plate and test compounds added from 96-well mother plates. […] Fluorescence intensity signal from 8-NBD was recorded at room temperature (rt) before and after tested compounds are added using SpectaMaxM2 microplate reader (Molecular Devices, Silicon Valley, Calif., USA) with excitation/emission wavelengths set at 470/540 nm.

[1] = test system: AsPC-1, BxPC-3, and PANC-1; test: Transwell migration/invasion assay; type: cell-based; details: pretreated with 10.0 μM for 24 hours; AsPC-1, BxPC-3, PANC-1
Description: The top chamber of 8 micron inserts (Costar Inc) were coated with BD Matrigel™ Basement Membrane Matrix ([…]). Cells (2×10^5) pretreated with 10.0 μM of ESI-09 for 24 hours were added to the top chamber of the inserts in serum free RPMI medium containing 0.25% BSA. The bottom chamber was filled with 600.0 μL of RPMI containing 10% FBS and 10.0 μM ESI-09. The cells were then incubated at 37° C. in 5% CO2 for 20 hours. Cells were removed from the top chamber and migrated cells were fixed in methanol and stained with crystal violet. The number of migrated cells were counted from four different fields.

R. australia = test: Lethal-dose R. australia infection of mice; type: in vivo; details: WT C57BL/6 mice, 10 mg/kg, IP daily
Description: FIG. 21. ESI-09 treatment protects mice from lethal-dose infection of R. australia. WT C57BL/6 mice were treated with vehicle or ESI-09 (10 mg/kg, IP) daily. Five days after the treatment, mice were challenged with lethal dose of R. australia and continued ESI-09 daily treatment. Severity of illness and survival rate were monitored.
To test if EPAC inhibitors are capable of protecting mice from lethal-dose infection of R. australia. WT C57BL/6 mice were treated with vehicle or ESI-09 (10 mg/kg, IP) daily. Five days after the treatment, mice were challenged with lethal dose of R. australia and continued ESI-09 daily treatment.

Question: Which results are given for `CC(C)(C)c1cc(C(=O)C(C#N)=NNc2cccc(Cl)c2)no1` [ESI-09, 3-(5-Tert-Butyl-Isoxazol-3-Yl)-2-[(3-Chlorophenyl)-Hydrazono]-3-Oxo-Propionitrile]?
Answer: IC50 (EPAC1): 3.2 µM; Relative Potency (RA) (EPAC2; RA = IC50, cAMP/IC50, compound): 3.9; IC50 (EPAC2; read-out: Apparent IC50, competing with 8-NBD-cAMP in binding EPAC2): 10 ± 1.2 µM; cell migration, trans-well migration/invasion [1]: significant decrease; also recorded: significantly (P<0.05) decreased; protection of R. australia infection (R. australia): striking protection; also recorded: protects; treatment group showing sign of sickness (R. australia): 10%
